Assays:
HeLa [1] = assay: Survival of human HeLa cells at 0.1 uM under deem light after 96 hrs by MTT assay relative to control; format: functional; conditions: read-out: Survival
HeLa [2] = assay: Survival of human HeLa cells at 10 uM under deem light after 96 hrs by MTT assay relative to control; format: functional; conditions: read-out: Survival
HeLa [3] = assay: Survival of human HeLa cells at 50 uM under deem light after 96 hrs by MTT assay relative to control; format: functional; conditions: read-out: Survival
HeLa [4] = assay: Survival of human HeLa cells at 100 uM under deem light after 96 hrs by MTT assay relative to control; format: functional; conditions: read-out: Survival
NCI-H69 [5] = assay: Survival of human H69 cells at 0.1 uM under deem light after 96 hrs by MTT assay relative to control; format: functional; conditions: NCI-H69, 96 h, read-out: Survival
NCI-H69 [6] = assay: Survival of human H69 cells at 10 uM under deem light after 96 hrs by MTT assay relative to control; format: functional; conditions: NCI-H69, 96 h, read-out: Survival
NCI-H69 [7] = assay: Survival of human H69 cells at 50 uM under deem light after 96 hrs by MTT assay relative to control; format: functional; conditions: NCI-H69, 96 h, read-out: Survival
NCI-H69 [8] = assay: Survival of human H69 cells at 100 uM under deem light after 96 hrs by MTT assay relative to control; format: functional; conditions: NCI-H69, 96 h, read-out: Survival
[9] = Survival of human H209 cells at 0.1 uM under deem light after 96 hrs by MTT assay relative to control; format: functional; conditions: NCI-H209, 96 h, read-out: Survival
[10] = Survival of human H209 cells at 10 uM under deem light after 96 hrs by MTT assay relative to control; format: functional; conditions: NCI-H209, 96 h, read-out: Survival
[11] = Survival of human H209 cells at 50 uM under deem light after 96 hrs by MTT assay relative to control; format: functional; conditions: NCI-H209, 96 h, read-out: Survival
[12] = Survival of human H209 cells at 100 uM under deem light after 96 hrs by MTT assay relative to control; format: functional; conditions: NCI-H209, 96 h, read-out: Survival
[13] = Survival of human 2780.9S cells at 0.1 uM under deem light after 96 hrs by MTT assay relative to control; format: functional; conditions: read-out: Survival
[14] = Survival of human 2780.9S cells at 10 uM under deem light after 96 hrs by MTT assay relative to control; format: functional; conditions: read-out: Survival
[15] = Survival of human 2780.9S cells at 50 uM under deem light after 96 hrs by MTT assay relative to control; format: functional; conditions: read-out: Survival
[16] = Survival of human 2780.9S cells at 100 uM under deem light after 96 hrs by MTT assay relative to control; format: functional; conditions: read-out: Survival
[17] = Survival of human MDA-MB cells at 0.1 uM under deem light after 96 hrs by MTT assay relative to control; format: functional; conditions: read-out: Survival
[18] = Survival of human MDA-MB cells at 10 uM under deem light after 96 hrs by MTT assay relative to control; format: functional; conditions: read-out: Survival
[19] = Survival of human MDA-MB cells at 50 uM under deem light after 96 hrs by MTT assay relative to control; format: functional; conditions: read-out: Survival
[20] = Survival of human MDA-MB cells at 100 uM under deem light after 96 hrs by MTT assay relative to control; format: functional; conditions: read-out: Survival
SiHa [21] = assay: Cytotoxicity against human SIHA cells under deem light after 96 hrs by MTT assay; format: functional, cell-based
Raji [22] = assay: Cytotoxicity against human Raji cells under deem light after 96 hrs by MTT assay; format: functional, cell-based
[23] = Cytotoxicity against human MDA-MB cells under deem light after 96 hrs by MTT assay; format: functional, cell-based
K562 [24] = assay: Cytotoxicity against human K562 cells under deem light after 96 hrs by MTT assay; format: functional, cell-based; conditions: K562, 96 h
HeLa [25] = assay: Cytotoxicity against human HeLa cells under deem light after 96 hrs by MTT assay; format: functional, cell-based
NCI-H69 [26] = assay: Cytotoxicity against human H69 cells under deem light after 96 hrs by MTT assay; format: functional, cell-based; conditions: NCI-H69, 96 h
Daudi = assay: Cytotoxicity against human Daudi cells under deem light after 96 hrs by MTT assay; format: functional, cell-based
[27] = Cytotoxicity against human 2780.9S cells under deem light after 96 hrs by MTT assay; format: functional, cell-based
[28] = Photohemolysis in human RBC in absence of light; format: ADME, cell-based; conditions: erythrocyte
[29] = Photohemolysis in human RBC at 375 nM under exposure to light for 10 mins; format: ADME, cell-based, Erythrocyte; conditions: human red blood cells, read-out: Activity
[30] = Photohemolysis in human RBC assessed as concentration required to 50% hemolysis under light exposure for 5 mins; format: ADME, cell-based, Erythrocyte; conditions: human red blood cells, read-out: Activity
[31] = Photohemolysis in human RBC assessed as concentration required to 50% hemolysis under light exposure for 10 mins; format: ADME, cell-based, Erythrocyte; conditions: human red blood cells, read-out: Activity
SiHa [32] = assay: Survival of human SIHA cells at 1 uM under deem light after 96 hrs by MTT assay relative to control; format: functional; conditions: read-out: Survival
K562 [33] = assay: Survival of human K562 cells at 1 uM under deem light after 96 hrs by MTT assay relative to control; format: functional; conditions: K562, 96 h, read-out: Survival
Raji [34] = assay: Survival of human Raji cells at 1 uM under deem light after 96 hrs by MTT assay relative to control; format: functional; conditions: read-out: Survival
HeLa [35] = assay: Survival of human HeLa cells at 1 uM under deem light after 96 hrs by MTT assay relative to control; format: functional; conditions: read-out: Survival
NCI-H69 [36] = assay: Survival of human H69 cells at 1 uM under deem light after 96 hrs by MTT assay relative to control; format: functional; conditions: NCI-H69, 96 h, read-out: Survival
[37] = Survival of human H209 cells at 1 uM under deem light after 96 hrs by MTT assay relative to control; format: functional; conditions: NCI-H209, 96 h, read-out: Survival
[38] = Survival of human 2780.9S cells at 1 uM under deem light after 96 hrs by MTT assay relative to control; format: functional; conditions: read-out: Survival
[39] = Survival of human MDA-MB cells at 1 uM under deem light after 96 hrs by MTT assay relative to control; format: functional; conditions: read-out: Survival
SiHa [40] = assay: Survival of human SIHA cells at 10 uM under deem light after 96 hrs by MTT assay relative to control; format: functional; conditions: read-out: Survival
SiHa [41] = assay: Survival of human SIHA cells at 50 uM under deem light after 96 hrs by MTT assay relative to control; format: functional; conditions: read-out: Survival
SiHa [42] = assay: Survival of human SIHA cells at 100 uM under deem light after 96 hrs by MTT assay relative to control; format: functional; conditions: read-out: Survival
K562 [43] = assay: Survival of human K562 cells at 0.1 uM under deem light after 96 hrs by MTT assay relative to control; format: functional; conditions: K562, 96 h, read-out: Survival
K562 [44] = assay: Survival of human K562 cells at 10 uM under deem light after 96 hrs by MTT assay relative to control; format: functional; conditions: K562, 96 h, read-out: Survival
K562 [45] = assay: Survival of human K562 cells at 50 uM under deem light after 96 hrs by MTT assay relative to control; format: functional; conditions: K562, 96 h, read-out: Survival
K562 [46] = assay: Survival of human K562 cells at 100 uM under deem light after 96 hrs by MTT assay relative to control; format: functional; conditions: K562, 96 h, read-out: Survival
Raji [47] = assay: Survival of human Raji cells at 0.1 uM under deem light after 96 hrs by MTT assay relative to control; format: functional; conditions: read-out: Survival
Raji [48] = assay: Survival of human Raji cells at 10 uM under deem light after 96 hrs by MTT assay relative to control; format: functional; conditions: read-out: Survival
Raji [49] = assay: Survival of human Raji cells at 50 uM under deem light after 96 hrs by MTT assay relative to control; format: functional; conditions: read-out: Survival
Raji [50] = assay: Survival of human Raji cells at 100 uM under deem light after 96 hrs by MTT assay relative to control; format: functional; conditions: read-out: Survival

CC1=C(CCC(=O)O)c2cc3nc(cc4[nH]c(cc5[nH]c(cc1n2)c(C)c5C(C)O)c(C)c4C(C)O)C(C)=C3CCC(=O)O (stereo unspecified) [HAEMAPORPHYRIN]
viability at 0.1 µM (HeLa [1]): 85.8%
viability at 10 µM (HeLa [2]): 113%
viability at 50 µM (HeLa [3]): 109%
viability at 100 µM (HeLa [4]): 104%
viability at 0.1 µM (NCI-H69 [5]): 92.2%
viability at 10 µM (NCI-H69 [6]): 104%
viability at 50 µM (NCI-H69 [7]): 82.9%
viability at 100 µM (NCI-H69 [8]): 62.6%
viability at 0.1 µM [9]: 91.4%
viability at 10 µM [10]: 99.5%
viability at 50 µM [11]: 93.3%
viability at 100 µM [12]: 84.6%
viability at 0.1 µM [13]: 102%
viability at 10 µM [14]: 75.5%
viability at 50 µM [15]: 81.4%
viability at 100 µM [16]: 43.8%
viability at 0.1 µM [17]: 136%
viability at 10 µM [18]: 104%
viability at 50 µM [19]: 107%
viability at 100 µM [20]: 82.8%
IC50 (SiHa [21]): 56 µM
IC50 (Raji [22]): 57 µM
IC50 [23]: > 100 µM
IC50 (K562 [24]): 44 µM
IC50 (HeLa [25]): 71 µM
IC50 (NCI-H69 [26]): 70 µM
IC50 (Daudi): 15 µM
IC50 [27]: > 100 µM
Activity [28]: Non-toxic
hemolysis at 10 min, 0.375 µM [29]: 100%
HC50 at 5 min [30]: 170 nM
HC50 at 10 min [31]: 460 nM
viability at 1 µM (SiHa [32]): 92.2%
viability at 1 µM (K562 [33]): 82.7%
viability at 1 µM (Raji [34]): 89.6%
viability at 1 µM (HeLa [35]): 103%
viability at 1 µM (NCI-H69 [36]): 105%
viability at 1 µM [37]: 94%
viability at 1 µM [38]: 82.5%
viability at 1 µM [39]: 115%
viability at 10 µM (SiHa [40]): 81.6%
viability at 50 µM (SiHa [41]): 52.6%
viability at 100 µM (SiHa [42]): 44.5%
viability at 0.1 µM (K562 [43]): 68.7%
viability at 10 µM (K562 [44]): 82.5%
viability at 50 µM (K562 [45]): 55.9%
viability at 100 µM (K562 [46]): 32.1%
viability at 0.1 µM (Raji [47]): 92.1%
viability at 10 µM (Raji [48]): 71.4%
viability at 50 µM (Raji [49]): 27.6%
viability at 100 µM (Raji [50]): 17%

Source: ChEMBL document CHEMBL1141575, “Preparation and in vitro biological evaluation of tetrapyrrole ethanolamide derivatives as potential anticancer agents” (Bioorg Med Chem Lett, 2008)
